Measurements taken from PubChem BioAssay AID2060487 (Molecular Pharmacology Branch, DTP, NCI, 2025).

Test system: 997537-175-T-J1-PDC complex spheroid viability
Assay: Anticancer human tumor 997537-175-T-J1-PDC patient-derived colon adenocarcinoma cell line growth inhibition [GQUAD]
Conditions: for IC50: curve of first compound; for viability, T/C: stronger effect = lower value
Summary of the method: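 Multi-cell-type spheroids of tumor cells with HUVEC and mesenchymal stem cells, treated with drug combinations. Concentrations descend in half-log steps from near clinical Cmax, or from 10 microM where Cmax is unknown; viability read-out.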

[1] = second compound 0.0316 µM, first compound 0.0316 µM
[2] = second compound 0.0316 µM, first compound 0.316 µM
[3] = second compound 0.1 µM, first compound 0.0316 µM
[4] = second compound 0.1 µM, first compound 0.316 µM
[5] = second compound 0.316 µM, first compound 0.0316 µM
[6] = second compound 0.316 µM, first compound 0.316 µM
[7] = second compound 1 µM, first compound 0.0316 µM
[8] = second compound 1 µM, first compound 0.316 µM
[9] = second compound 3.16 µM, first compound 0.0316 µM
[10] = second compound 3.16 µM, first compound 0.316 µM
[11] = second compound 10 µM, first compound 0.0316 µM
[12] = second compound 10 µM, first compound 0.316 µM
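Also: spheroids exposed to the agents for 7 days.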
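For viability, T/C in this document: 100% = DMSO vehicle control viability.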

C=CCn1c(=O)c2cnc(Nc3ccc(N4CCN(C)CC4)cc3)nc2n1-c1cccc(C(C)(C)O)n1 + Cc1[nH]c2ccc(F)cc2c1-c1nc2c3cccnc3c3ncccc3c2[nH]1
IC50 (second compound 0.0316 µM): 6610 nM
IC50 (second compound 0.1 µM): 6380 nM
IC50 (second compound 0.316 µM): 6160 nM
IC50 (second compound 1 µM): 5500 nM
IC50 (second compound 3.16 µM): 2240 nM
IC50 (second compound 10 µM): 2090 nM
viability, T/C [1]: 102%
viability, T/C (second compound 0.0316 µM, first compound 0.1 µM): 68.9%
viability, T/C [2]: 82.3%
viability, T/C (second compound 0.0316 µM, first compound 1 µM): 83.6%
viability, T/C (second compound 0.0316 µM, first compound 3.16 µM): 90.9%
viability, T/C (second compound 0.0316 µM, first compound 10 µM): 30%
viability, T/C [3]: 105%
viability, T/C (second compound 0.1 µM, first compound 0.1 µM): 97.1%
viability, T/C [4]: 89.8%
viability, T/C (second compound 0.1 µM, first compound 1 µM): 89.2%
viability, T/C (second compound 0.1 µM, first compound 3.16 µM): 93.6%
viability, T/C (second compound 0.1 µM, first compound 10 µM): 22.2%
viability, T/C [5]: 86.8%
viability, T/C (second compound 0.316 µM, first compound 0.1 µM): 98.8%
viability, T/C [6]: 79.3%
viability, T/C (second compound 0.316 µM, first compound 1 µM): 86.4%
viability, T/C (second compound 0.316 µM, first compound 3.16 µM): 84.4%
viability, T/C (second compound 0.316 µM, first compound 10 µM): 25%
viability, T/C [7]: 86.6%
viability, T/C (second compound 1 µM, first compound 0.1 µM): 102%
viability, T/C [8]: 86.4%
viability, T/C (second compound 1 µM, first compound 1 µM): 78.3%
viability, T/C (second compound 1 µM, first compound 3.16 µM): 71.2%
viability, T/C (second compound 1 µM, first compound 10 µM): 30.1%
viability, T/C [9]: 92%
viability, T/C (second compound 3.16 µM, first compound 0.1 µM): 87.3%
viability, T/C [10]: 72.4%
viability, T/C (second compound 3.16 µM, first compound 1 µM): 56.5%
viability, T/C (second compound 3.16 µM, first compound 3.16 µM): 55%
viability, T/C (second compound 3.16 µM, first compound 10 µM): 6.52%
viability, T/C [11]: 91.9%
viability, T/C (second compound 10 µM, first compound 0.1 µM): 65.1%
viability, T/C [12]: 74.9%
viability, T/C (second compound 10 µM, first compound 1 µM): 66.5%
viability, T/C (second compound 10 µM, first compound 3.16 µM): 42.1%
viability, T/C (second compound 10 µM, first compound 10 µM): 11.5%

CC[C@@]1(O)C(=O)OCc2c1cc1n(c2=O)Cc2cc3c(CN(C)C)c(O)ccc3nc2-1 + CN(C)c1ccc(Nc2c3ccc(NC(=O)CCN4CCCC4)cc3nc3cc(NC(=O)CCN4CCCC4)ccc23)cc1
IC50 (second compound 0.0316 µM): > 316 nM
IC50 (second compound 0.1 µM): > 316 nM
IC50 (second compound 0.316 µM): > 316 nM
IC50 (second compound 1 µM): > 316 nM
IC50 (second compound 3.16 µM): > 316 nM
IC50 (second compound 10 µM): > 316 nM
viability, T/C (second compound 0.0316 µM, first compound 0.000999 µM): 90%
viability, T/C (second compound 0.0316 µM, first compound 0.00316 µM): 84.8%
viability, T/C (second compound 0.0316 µM, first compound 0.00999 µM): 86.4%
viability, T/C [1]: 61.1%
viability, T/C (second compound 0.0316 µM, first compound 0.0999 µM): 82.5%
viability, T/C [2]: 64.2%
viability, T/C (second compound 0.1 µM, first compound 0.000999 µM): 99%
viability, T/C (second compound 0.1 µM, first compound 0.00316 µM): 103%
viability, T/C (second compound 0.1 µM, first compound 0.00999 µM): 92.3%
viability, T/C [3]: 86.2%
viability, T/C (second compound 0.1 µM, first compound 0.0999 µM): 76.8%
viability, T/C [4]: 63.3%
viability, T/C (second compound 0.316 µM, first compound 0.000999 µM): 82.3%
viability, T/C (second compound 0.316 µM, first compound 0.00316 µM): 81.9%
viability, T/C (second compound 0.316 µM, first compound 0.00999 µM): 87.3%
viability, T/C [5]: 97.8%
viability, T/C (second compound 0.316 µM, first compound 0.0999 µM): 91.5%
viability, T/C [6]: 69.3%
viability, T/C (second compound 1 µM, first compound 0.000999 µM): 79.3%
viability, T/C (second compound 1 µM, first compound 0.00316 µM): 91.1%
viability, T/C (second compound 1 µM, first compound 0.00999 µM): 108%
viability, T/C [7]: 90.6%
viability, T/C (second compound 1 µM, first compound 0.0999 µM): 96.9%
viability, T/C [8]: 68.9%
viability, T/C (second compound 3.16 µM, first compound 0.000999 µM): 63.8%
viability, T/C (second compound 3.16 µM, first compound 0.00316 µM): 79.7%
viability, T/C (second compound 3.16 µM, first compound 0.00999 µM): 90.4%
viability, T/C [9]: 86.4%
viability, T/C (second compound 3.16 µM, first compound 0.0999 µM): 95.2%
viability, T/C [10]: 65.9%
viability, T/C (second compound 10 µM, first compound 0.000999 µM): 86.3%
viability, T/C (second compound 10 µM, first compound 0.00316 µM): 88.6%
viability, T/C (second compound 10 µM, first compound 0.00999 µM): 98.7%
viability, T/C [11]: 103%
viability, T/C (second compound 10 µM, first compound 0.0999 µM): 99.6%
viability, T/C [12]: 73.3%
